From patent publication US20240300902A1, “NOVEL TRANSGLUTAMINASE 2 INHIBITOR AND USE THEREOF” (MD BIOLAB CO., LTD., priority 2021, published 2024)
Where two headings read alike, the source gives them in different places.

Legend:
[1] = biological target: T1, guinea pig liver-originated transglutaminase 2 (Cavia cutleri, UniProt P08587); test: In vitro transglutaminase 2 assay (1), [1,4-14C] putrescine incorporation into succinylated casein; format: biochemical; conditions: for mean value (scintillation counts) / fold values relative to the mean value of the control: 2 μM; for mean value (scintillation counts): negative control 129.0, control 4147.5, FIG. 1; for fold values relative to the mean value of the control: standard deviations 0.02 and 0.01; for TGase2 enzyme activity inhibitory effect compared with streptonigrin (KN383, positive control): same dose (2 μM)
T1 construct: 1 mU of guinea pig liver-originated transglutaminase 2 (Sigma, St. Louis, MO, USA); purchased Sigma; host or cells: guinea pig liver
T1 sequence (P08587 1-690): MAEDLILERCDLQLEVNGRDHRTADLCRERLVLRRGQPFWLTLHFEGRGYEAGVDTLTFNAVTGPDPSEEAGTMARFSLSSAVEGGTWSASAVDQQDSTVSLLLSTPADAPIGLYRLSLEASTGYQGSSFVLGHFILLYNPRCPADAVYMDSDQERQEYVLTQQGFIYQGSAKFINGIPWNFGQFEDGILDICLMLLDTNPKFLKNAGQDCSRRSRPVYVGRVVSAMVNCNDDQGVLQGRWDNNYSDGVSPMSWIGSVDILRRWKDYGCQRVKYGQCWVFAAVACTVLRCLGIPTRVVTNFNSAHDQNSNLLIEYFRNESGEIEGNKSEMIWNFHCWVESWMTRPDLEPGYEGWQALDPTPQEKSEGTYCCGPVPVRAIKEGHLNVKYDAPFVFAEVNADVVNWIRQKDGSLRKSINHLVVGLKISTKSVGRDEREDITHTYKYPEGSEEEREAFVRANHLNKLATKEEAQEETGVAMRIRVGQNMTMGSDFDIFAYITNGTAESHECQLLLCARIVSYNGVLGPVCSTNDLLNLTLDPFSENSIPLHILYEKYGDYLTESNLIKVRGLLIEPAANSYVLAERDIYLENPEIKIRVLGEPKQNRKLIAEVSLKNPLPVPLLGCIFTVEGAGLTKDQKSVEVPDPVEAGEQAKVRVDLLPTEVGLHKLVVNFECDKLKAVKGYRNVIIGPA
Method: Incorporation of [1,4-14C] putrescine into succinylated casein was measured to determine the inhibitory effect of each compound on the activity of transglutaminase 2 (TGase 2). 1 mU of guinea pig liver-originated transglutaminase 2 (Sigma, St. Louis, MO, USA) was preincubated with various concentrations of GK13 or GK921 in a 0.1 mL reaction buffer with or without 10 mM CaCl2 for 10 minutes, and 0.4 mL of a substrate solution containing 2% (w/v) succinylated casein and 100 nCi of [1,4-14C] putrescine. After incubation at 37° C. for 1 hour, 4 mL of cold (4° C.) 7.5% (w/v) trichloroacetic acid (TCA) was added to terminate the reaction. The TCA-insoluble precipitate was recovered with a GF/A-grade glass filter (Millipore, Billerica, MA, USA), washed with cold 5% (w/v) TCA, dried, and assessed with a scintillation counter (Beckman Coulter, Brea, CA, USA) to evaluate radiolabel binding. Transglutaminase 2 which was pre-incubated only with a buffer was used as a positive control. The scintillation counts were compared between the example and the positive control, and IC50 values were determined through the logistic linear regression method. The presented data were the mean values of three independent experiments. In this experimental example and the following experimental example, Streptonigrin (described as KN383 in each figure of the drawing), which is an existing transglutaminase 2 inhibitor, was used as a positive control.

[2] = system: ACHN cancer cell population; test: Sulforhodamine B (SRB) assay; format: cell-based, Human; conditions: for GI50 / SRB measurement (percentage decrease in the control value of SRB): 48 hours; for GI50: read-out: GI50 (50% growth inhibition); for SRB measurement (percentage decrease in the control value of SRB): concentration of 10^−5 M; for decrease in cell counts: concentrations 10^−6 M or lower
Method: Cells (10,000 cells/well, 100 μL) were incubated in a 96-well microtiter plate. After 24 hours of the incubation, drug (100 μL) was added to each of the wells, and the culture was further incubated at 37° C. for 48 hours. The cells were then fixed in TCA (50 μL per well). The plates were incubated at 4° C. for a minimum of 1 hour or a maximum of 3 hours. The liquid was removed from the plates, and then the plate was washed five times with water and then dried at room temperature (RT) for about 12-24 hours. The fixed cells were stained with 100 μL SRB for 5 minutes at room temperature. After the staining, the plate was washed three times with 1% (w/v) glacial acetic acid and dried at room temperature for about 12-24 hours. Next, the SRB was then dissolved in 10 mM Trizma base, and the absorbance was measured at 515 nm. The effect of the drug was expressed as GI50 (50% growth inhibition).
Specifically, each of the LDD3732, LDD3922, and LDD3959 in concentrations of 10^−9, 10^−8, 10^−7, 10^−6, and 10^−5 M were tested, and the percentage decrease in the control value of SRB was measured using an ACHN cancer cell population.

p53 = test: P53 rescue test using western blotting; format: cell-based; conditions: low to high concentration, cancer cell lines
Method: Whole cell lysates were prepared using a radioimmunoprecipitation assay (RIPA) buffer (150 mM sodium chloride, 1.0% (w/v) IGEPAL® CA-630 (NP-40), 0.5% (w/v) sodium deoxycholate, 0.1% (w/v) sodium dodecyl sulfate (SDS), a protease inhibitor cocktail, and 50 mM Tris-HCl (pH 8.0) containing a phosphatase inhibitor cocktail. Protein assays were performed through Bradford protein assay (Thermo Scientific, Waltham, MA, USA) to normalize protein expression. The proteins were resolved by SDS-PAGE and transferred to polyvinylidene difluoride (PVDF) membranes (Merck Millipore, Burlington, MA, USA). The membranes were blocked with 5% (w/v) BSA for 1 hour at room temperature and incubated overnight at 4° C. with labeled antibodies. Membranes were washed in TBS-T for 1 hour at room temperature and incubated together with a horseradish peroxidase (HRP)-bound secondary antibody for 1 hour at room temperature. Finally, the membranes were washed in TBS-T for 1 hour at room temperature and developed with enhanced chemiluminescence.

MCF7 cells = test: Cell viability in breast cancer cell lines according to concentration; format: cell-based; conditions: MCF7, no expression of transglutaminase 2, 72 hours
Method: First breast cancer cells (MDA-MB-453, HCC-1806, HCC-1937: 10,000 cells/well, 100 μl) and second breast cancer cells (MDA-MB-231, MCF-7: 10,000 cells/well, 100 μl) were cultured in 96-well microplates.
After 24 hours, LDD3959 […] of various concentrations were added to each well, using a serum-free cell culture medium, and a reaction was allowed to proceed for 2 hours at 37° C. in the presence of 5% CO2. The culture medium was replaced with a culture medium containing 10% FSB, and a reaction was performed for 72 hours.
The existing culture medium was removed, and a new culture medium containing a water soluble tetrazolium salt was added. After that, the plate underwent a reaction at 37° C. in the presence of 5% CO2 for a duration in the range of 1 hour to 3 hours, and then absorbance was measured at 450 nm.

In the case of `O=C1C(Cl)=C(Cl)C(=O)c2[nH]c(-c3ccccc3)nc21` [LDD3732, 5,6-dichloro-2-phenyl-1H-benzo[d]imidazole-4.7-dione], the “mean value (scintillation counts)” value [1] is reported as 477.5, the “fold values relative to the mean value of the control” value [1] is reported as 0.12 and the “TGase2 enzyme activity inhibitory effect compared with streptonigrin (KN383, positive control)” value [1] is reported as “two-fold or greater stronger TGase2 enzyme activity inhibitory effects than the control”. The GI50 [2] was 2.2 µM, the “SRB measurement (percentage decrease in the control value of SRB)” value [2] was −41.43 and the “decrease in cell counts” value [2] was “no significant decrease in cell counts”. For the same compound, the “p53 rescue effect (Western blot band of p53)” value (p53) was “dose-dependent p53 rescue effects”.

In the case of `O=C1C(Cl)=C(Cl)C(=O)c2[nH]c(-c3ccc(Br)cc3)nc21` [LDD3922, 2-(4-bromophenyl)-5,6-dichloro-1H-benzo[d]imidazole-4,7-dione], the “mean value (scintillation counts)” value [1] is reported as 352.5, the “fold values relative to the mean value of the control” value [1] is reported as 0.08 and the “TGase2 enzyme activity inhibitory effect compared with streptonigrin (KN383, positive control)” value [1] is reported as “two-fold or greater stronger TGase2 enzyme activity inhibitory effects than the control”. For the same compound, the GI50 ([2]; Homo sapiens) was 5 µM, the “SRB measurement (percentage decrease in the control value of SRB)” value [2] was 52.25 and the “decrease in cell counts” value [2] was “no significant decrease in cell counts”. For the same compound, the “p53 rescue effect (Western blot band of p53)” value (p53) was “dose-dependent p53 rescue effects”.

In the case of `COC1=C(N)C(=O)c2nc(-c3nc(C(=O)O)c(C)c(-c4ccc(OC)c(OC)c4O)c3N)ccc2C1=O` [streptonigrin, Streptonigrin, reference compound], the “effective concentration for apoptosis” value (MCF7 cells) is reported as “low” and the “mean value (scintillation counts)” value [1] is reported as 1275.5.
